Measurements from ChEMBL document CHEMBL1201861, “Genomics of Drug Sensitity in Cancer screening data, Wellcome Trust Sanger Institute”.
pIC50: −log10 of the molar value.

Assays:
MC-CAR = assay: cells; assay type: functional, cell-based, Homo sapiens; details: Homo sapiens, MC-CAR;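 note: growth inhibition of the human MC-CAR cell line, read out by a cell viability assay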
Description: SANGER: Inhibition of human MC-CAR cell growth in a cell viability assay.

NCI-H345 = assay: cells; assay type: functional, cell-based, Homo sapiens; details: Homo sapiens, NCI-H345;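 note: growth inhibition of NCI-H345 cells measured with a cell viability assay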
Description: SANGER: Inhibition of human NCI-H345 cell growth in a cell viability assay.

DBTRG-05MG = assay: cells; assay type: functional, cell-based; details: Homo sapiens;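 note: cell viability assay measuring growth inhibition of human DBTRG-05MG cells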
Description: SANGER: Inhibition of human DBTRG-05MG cell growth in a cell viability assay.

ST486 = assay: SANGER: Inhibition of human ST486 cell growth in a cell viability assay.; assay type: functional, cell-based; details: Homo sapiens, ST486
COLO-678 = assay: cells; assay type: functional, cell-based; details: Homo sapiens
Description: SANGER: Inhibition of human COLO-678 cell growth in a cell viability assay.

TE-441-T = assay: cells; assay type: functional, cell-based, Homo sapiens; details: Homo sapiens, TE-441-T
Description: SANGER: Inhibition of human TE-441-T cell growth in a cell viability assay.

SAS = assay: cells; assay type: functional, cell-based; details: Homo sapiens;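 note: growth inhibition of SAS cells, read out with a cell viability assay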
Description: SANGER: Inhibition of human SAS cell growth in a cell viability assay.

AN3-CA = assay: cells; assay type: functional, cell-based; details: Homo sapiens;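 note: growth inhibition of human AN3-CA cells measured by a cell viability assay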
Description: SANGER: Inhibition of human AN3-CA cell growth in a cell viability assay.

SKG-IIIa = assay: cells; assay type: functional, cell-based; details: Homo sapiens;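 note: cell growth inhibition, read out with a cell viability assay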
Description: SANGER: Inhibition of human SKG-IIIa cell growth in a cell viability assay.

MDA-MB-361 = assay: cells; assay type: functional, cell-based; details: Homo sapiens
NCI-H1522 = assay: cells; assay type: functional, cell-based, Homo sapiens; details: Homo sapiens, NCI-H1522;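 note: growth inhibition of NCI-H1522 cells, read out with a cell viability assay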
Description: SANGER: Inhibition of human NCI-H1522 cell growth in a cell viability assay.

KYSE-180 = assay: cells; assay type: functional, cell-based; details: Homo sapiens;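 note: growth inhibition of KYSE-180 cells, read out with a cell viability assay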
Description: SANGER: Inhibition of human KYSE-180 cell growth in a cell viability assay.

KYSE-410 = assay: cells; assay type: functional, cell-based; details: Homo sapiens;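 note: growth inhibition of KYSE-410 cells, measured through a cell viability readout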
Description: SANGER: Inhibition of human KYSE-410 cell growth in a cell viability assay.

COR-L105 = assay: cells; assay type: functional, cell-based; details: Homo sapiens
Description: SANGER: Inhibition of human COR-L105 cell growth in a cell viability assay.

SJRH30 = assay: cells; assay type: functional, cell-based; details: Homo sapiens;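 note: growth inhibition of human SJRH30 cells, read out with a cell viability assay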
Description: SANGER: Inhibition of human SJRH30 cell growth in a cell viability assay.

U-118-MG = assay: cells; assay type: functional, cell-based; details: Homo sapiens
Description: SANGER: Inhibition of human U-118-MG cell growth in a cell viability assay.

NUGC-3 = assay: cells; assay type: functional, cell-based; details: Homo sapiens;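 note: growth inhibition of human NUGC-3 cells, read out with a cell viability assay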
Description: SANGER: Inhibition of human NUGC-3 cell growth in a cell viability assay.

COLO-680N = assay: cells; assay type: functional, cell-based; details: Homo sapiens;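 note: cell viability assay used to measure inhibition of COLO-680N cell growth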
Description: SANGER: Inhibition of human COLO-680N cell growth in a cell viability assay.

TALL-1 = assay: cells; assay type: functional, cell-based, Homo sapiens; details: Homo sapiens, TALL-1;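 note: growth inhibition of cultured human TALL-1 cells, read out by a cell viability assay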
Description: SANGER: Inhibition of human TALL-1 cell growth in a cell viability assay.

SN12C = assay: cells; assay type: functional, cell-based; details: Homo sapiens;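 note: growth inhibition of human SN12C cells, measured by a cell viability assay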
Description: SANGER: Inhibition of human SN12C cell growth in a cell viability assay.

COLO-679 = assay: cells; assay type: functional, cell-based; details: Homo sapiens
Description: SANGER: Inhibition of human COLO-679 cell growth in a cell viability assay.

KMS-12-PE = assay: cells; assay type: functional, cell-based, Homo sapiens; details: Homo sapiens, KMS-12-PE;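 note: growth inhibition of human KMS-12-PE cells, measured with a cell viability assay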
Description: SANGER: Inhibition of human KMS-12-PE cell growth in a cell viability assay.

RPMI-7951 = assay: cells; assay type: functional, cell-based; details: Homo sapiens
Description: SANGER: Inhibition of human RPMI-7951 cell growth in a cell viability assay.

RPMI 8402 = assay: SANGER: Inhibition of human RPMI-8402 cell growth in a cell viability assay.; assay type: functional, cell-based; details: Homo sapiens, RPMI 8402
TE-15 = assay: cells; assay type: functional, cell-based, Homo sapiens; details: Homo sapiens, TE-15;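 note: cell viability readout of growth inhibition in TE-15 cells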
Description: SANGER: Inhibition of human TE-15 cell growth in a cell viability assay.

NCI-H1563 = assay: cells; assay type: functional, cell-based; details: Homo sapiens;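 note: growth inhibition of human NCI-H1563 cells, read out with a cell viability assay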
Description: SANGER: Inhibition of human NCI-H1563 cell growth in a cell viability assay.

HSC-4 = assay: cells; assay type: functional, cell-based; details: Homo sapiens;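 note: growth inhibition of human HSC-4 cells, read out with a cell viability assay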
Description: SANGER: Inhibition of human HSC-4 cell growth in a cell viability assay.

YAPC = assay: cells; assay type: functional, cell-based; details: Homo sapiens;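 note: growth inhibition of YAPC cells, measured with a cell viability assay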
Description: SANGER: Inhibition of human YAPC cell growth in a cell viability assay.

KYSE-450 = assay: cells; assay type: functional, cell-based; details: Homo sapiens;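 note: cell growth inhibition measured by a viability assay in human KYSE-450 cells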
Description: SANGER: Inhibition of human KYSE-450 cell growth in a cell viability assay.

SK-MM-2 = assay: cells; assay type: functional, cell-based, Homo sapiens; details: Homo sapiens, SK-MM-2;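 note: growth inhibition of human SK-MM-2 cells, read out with a cell viability assay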
Description: SANGER: Inhibition of human SK-MM-2 cell growth in a cell viability assay.

BT-20 = assay: cells; assay type: functional, cell-based; details: Homo sapiens;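 note: cell viability assay measuring suppression of growth in human BT-20 cells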
Description: SANGER: Inhibition of human BT-20 cell growth in a cell viability assay.

KOSC-2 = assay: cells; assay type: functional, cell-based; details: Homo sapiens;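 note: growth inhibition of KOSC-2 cells, read out by a cell viability assay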
Description: SANGER: Inhibition of human KOSC-2 cell growth in a cell viability assay.

SiHa = assay: cells; assay type: functional, cell-based; details: Homo sapiens;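 note: Viability-based readout of growth inhibition in SiHa cells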
Description: SANGER: Inhibition of human SiHa cell growth in a cell viability assay.

HT-1080 = assay: cells; assay type: functional, cell-based; details: Homo sapiens
Description: SANGER: Inhibition of human HT-1080 cell growth in a cell viability assay.

CP50-MEL-B = assay: cells; assay type: functional, cell-based; details: Homo sapiens;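 note: growth inhibition of the human cell line, measured with a cell viability read-out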
Description: SANGER: Inhibition of human CP50-MEL-B cell growth in a cell viability assay.

OE19 = assay: cells; assay type: functional, cell-based; details: Homo sapiens;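 note: growth inhibition of OE19 cells, measured through a cell viability read-out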
Description: SANGER: Inhibition of human OE19 cell growth in a cell viability assay.

Hs-578T = assay: cells; assay type: functional, cell-based; details: Homo sapiens
Description: SANGER: Inhibition of human Hs-578-T cell growth in a cell viability assay.

MDA-MB-175-VII = assay: cells; assay type: functional, cell-based; details: Homo sapiens
NCI-H650 = assay: cells; assay type: functional, cell-based; details: Homo sapiens;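 note: growth inhibition of NCI-H650 cells, read out by a viability assay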
Description: SANGER: Inhibition of human NCI-H650 cell growth in a cell viability assay.

GMS-10 = assay: cells; assay type: functional, cell-based; details: Homo sapiens;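 note: growth inhibition of GMS-10 cells, read out as cell viability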
Description: SANGER: Inhibition of human GMS-10 cell growth in a cell viability assay.

CAL-12T = assay: cells; assay type: functional, cell-based; details: Homo sapiens;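 note: growth inhibition of human CAL-12T cells, read out with a cell viability assay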
Description: SANGER: Inhibition of human CAL-12T cell growth in a cell viability assay.

D-336MG = assay: cells; assay type: functional, cell-based, Homo sapiens; details: Homo sapiens, D-336MG
Description: SANGER: Inhibition of human D-336MG cell growth in a cell viability assay.

BL-70 = assay: SANGER: Inhibition of human BL-70 cell growth in a cell viability assay.; assay type: functional, cell-based; details: Homo sapiens, BL-70
SW756 = assay: cells; assay type: functional, cell-based; details: Homo sapiens;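 note: growth inhibition of human SW756 cells, read out with a cell viability assay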
Description: SANGER: Inhibition of human SW756 cell growth in a cell viability assay.

HCC1419 = assay: cells; assay type: functional, cell-based; details: Homo sapiens;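 note: growth inhibition of human HCC1419 cells, read out as cell viability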
Description: SANGER: Inhibition of human HCC1419 cell growth in a cell viability assay.

NCI-H2009 = assay: cells; assay type: functional, cell-based; details: Homo sapiens;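 note: cell viability assay measuring inhibition of NCI-H2009 cell growth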
Description: SANGER: Inhibition of human NCI-H2009 cell growth in a cell viability assay.

A 172 = assay: cells; assay type: functional, cell-based; details: Homo sapiens;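 note: growth inhibition of A172 cells, measured with a cell viability readout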
Description: SANGER: Inhibition of human A172 cell growth in a cell viability assay.

8505C = assay: cells; assay type: functional, cell-based; details: Homo sapiens
Description: SANGER: Inhibition of human 8505C cell growth in a cell viability assay.

ESS-1 = assay: cells; assay type: functional, cell-based; details: Homo sapiens;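 note: growth inhibition of human ESS-1 cells, read out by a cell viability assay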
Description: SANGER: Inhibition of human ESS-1 cell growth in a cell viability assay.

PANC-03-27 = assay: cells; assay type: functional, cell-based; details: Homo sapiens
Description: SANGER: Inhibition of human PANC-03-27 cell growth in a cell viability assay.

MDA-MB-415 = assay: cells; assay type: functional, cell-based; details: Homo sapiens
G-361 = assay: cells; assay type: functional, cell-based; details: Homo sapiens
CP66-MEL = assay: cells; assay type: functional, cell-based; details: Homo sapiens;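 note: growth inhibition of CP66-MEL cells determined in a cell viability assay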
Description: SANGER: Inhibition of human CP66-MEL cell growth in a cell viability assay.

COLO-792 = assay: cells; assay type: functional, cell-based; details: Homo sapiens
Description: SANGER: Inhibition of human COLO-792 cell growth in a cell viability assay.

HuO9 = assay: cells; assay type: functional, cell-based; details: Homo sapiens;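 note: growth inhibition of HuO9 cells, read out with a cell viability assay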
Description: SANGER: Inhibition of human HuO9 cell growth in a cell viability assay.

OPM-2 = assay: cells; assay type: functional, cell-based, Homo sapiens; details: Homo sapiens, OPM-2;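 note: growth of OPM-2 cells measured with a viability assay, IC50 for suppression of proliferation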
Description: SANGER: Inhibition of human OPM-2 cell growth in a cell viability assay.

AGS = assay: cells; assay type: functional, cell-based; details: Homo sapiens;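 note: growth inhibition of AGS cells, determined with a cell viability assay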
Description: SANGER: Inhibition of human AGS cell growth in a cell viability assay.

EHEB = assay: cells; assay type: functional, cell-based; details: Homo sapiens;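 note: growth inhibition of human EHEB cells, read out with a cell viability assay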
Description: SANGER: Inhibition of human EHEB cell growth in a cell viability assay.

SK-LU-1 = assay: cells; assay type: functional, cell-based; details: Homo sapiens;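 note: cell viability assay measuring growth inhibition of human SK-LU-1 cells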
Description: SANGER: Inhibition of human SK-LU-1 cell growth in a cell viability assay.

For `Cc1ccc(C(=O)Nc2ccc(CN3CCN(C)CC3)c(C(F)(F)F)c2)cc1C#Cc1cnc2cccnn12` [PONATINIB], the pIC50 (MC-CAR) was less than 6.29, the pIC50 (NCI-H345) was less than 6.29 and the pIC50 (DBTRG-05MG) was 6.42. It also gave a pIC50 (ST486) of less than 6.29, a pIC50 (COLO-678) of less than 6.29 and a pIC50 (TE-441-T) of less than 6.29. The pIC50 (SAS) was less than 6.29, the pIC50 (AN3-CA) was 7.73 and the pIC50 (SKG-IIIa) was less than 6.29. For the same molecule, the pIC50 (MDA-MB-361) was less than 6.29, the pIC50 (NCI-H1522) was less than 6.29 and the pIC50 (KYSE-180) was 6.57. For the same molecule, the pIC50 (KYSE-410) was less than 6.29, the pIC50 (COR-L105) was less than 6.29 and the pIC50 (SJRH30) was less than 6.29. It also gave a pIC50 (U-118-MG) of less than 6.29, a pIC50 (NUGC-3) of less than 6.29 and a pIC50 (COLO-680N) of less than 6.29. It also gave a pIC50 (TALL-1) of less than 6.29, a pIC50 (SN12C) of less than 6.29 and a pIC50 (COLO-679) of less than 6.29. The pIC50 (KMS-12-PE) was less than 6.29, the pIC50 (RPMI-7951) was less than 6.29 and the pIC50 (RPMI 8402) was less than 6.29. It also gave a pIC50 (TE-15) of 6.58, a pIC50 (NCI-H1563) of less than 6.29 and a pIC50 (HSC-4) of less than 6.29. The pIC50 (YAPC) was less than 6.29, the pIC50 (KYSE-450) was 6.56 and the pIC50 (SK-MM-2) was less than 6.29. The pIC50 (BT-20) was less than 6.29, the pIC50 (KOSC-2) was less than 6.29 and the pIC50 (SiHa) was less than 6.29. The pIC50 (HT-1080) was less than 6.29, the pIC50 (CP50-MEL-B) was less than 6.29 and the pIC50 (OE19) was less than 6.29. The pIC50 (Hs-578T) was less than 6.29, the pIC50 (MDA-MB-175-VII) was less than 6.29 and the pIC50 (NCI-H650) was less than 6.29. The pIC50 (GMS-10) was less than 6.29, the pIC50 (CAL-12T) was less than 6.29 and the pIC50 (D-336MG) was less than 6.29. It also gave a pIC50 (BL-70) of 7.66, a pIC50 (SW756) of less than 6.29 and a pIC50 (HCC1419) of less than 6.29. It also gave a pIC50 (NCI-H2009) of less than 6.29, a pIC50 (A 172) of 6.53 and a pIC50 (8505C) of less than 6.29. The pIC50 (ESS-1) was 6.32, the pIC50 (PANC-03-27) was less than 6.29 and the pIC50 (MDA-MB-415) was less than 6.29. For the same molecule, the pIC50 (G-361) was less than 6.29, the pIC50 (CP66-MEL) was less than 6.29 and the pIC50 (COLO-792) was less than 6.29. For the same molecule, the pIC50 (HuO9) was 7.26, the pIC50 (OPM-2) was 6.44 and the pIC50 (AGS) was less than 6.29. For the same molecule, the pIC50 (EHEB) was less than 6.29 and the pIC50 (SK-LU-1) was 6.50.
